From the supplement of paper PMC10307832 come the findings set out here.

Holding throughout (assay): relative viability (nuclei count vs DMSO), 5 days (fraction); higher = more cells survive
Compound in the assay “Irinotecan + Palbociclib”: CCc1c2c(nc3ccc(OC(=O)N4CCC(N5CCCCC5)CC4)cc13)-c1cc3c(c(=O)n1C2)COC(=O)[C@]3(O)CC [Irinotecan] + CC(=O)c1c(C)c2cnc(Nc3ccc(N4CCNCC4)cn3)nc2n(C2CCCC2)c1=O [Palbociclib] (partner 0.5 µM)
The method, boiled down:
(§1)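 A single step with final 0.05% Triton X-100, 1% formaldehyde and 1 ug/ml Hoechst fixed the cells and stained nuclei 5 days after treatment. Lung cancer cell lines in 1536-well plates had been treated by pin tool the day after seeding with one drug alone or a fixed anchor-drug dose plus five library-drug doses (not always all listed) in √10 steps, and nuclei were counted on 4× images. Relative viability is the ratio of nuclei in treated wells to nuclei in vehicle wells, taken as the median of duplicate plates.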

Compound in the assay “Irinotecan + Decitabine”: CCc1c2c(nc3ccc(OC(=O)N4CCC(N5CCCCC5)CC4)cc13)-c1cc3c(c(=O)n1C2)COC(=O)[C@]3(O)CC [Irinotecan] + Nc1ncn([C@H]2C[C@H](O)[C@@H](CO)O2)c(=O)n1 [Decitabine] (partner 2 µM)
The method, boiled down:
as §1

Compound in the assay “MK-8033 + Pictilisib”: Cn1cc(-c2cnc3ccc4ccc(CS(=O)(=O)NCc5ccccn5)cc4c(=O)c3c2)cn1 [MK-8033] + CS(=O)(=O)N1CCN(Cc2cc3nc(-c4cccc5[nH]ncc45)nc(N4CCOCC4)c3s2)CC1 [Pictilisib] (partner 1 µM)
Summed up: as §1

Compound in the assay “RU-SKI 43 + Pictilisib”: CC[C@@H](C)CNCC(=O)N1CCC2=C([C@@H]1COC3=CC=CC(=C3)C)C=CS2 [RU-SKI 43] + CS(=O)(=O)N1CCN(Cc2cc3nc(-c4cccc5[nH]ncc45)nc(N4CCOCC4)c3s2)CC1 [Pictilisib] (partner 1 µM)
The method, boiled down: as §1

Consider UMC-11, for which the relative viability with Irinotecan + Palbociclib (first compound 0.6325 µM) turned out to be 0.343; with Irinotecan + Palbociclib (first compound 2 µM) it was 0.336; in the assay with Irinotecan + Palbociclib (first compound 6.325 µM) it was 0.267; with Irinotecan + Palbociclib (first compound 20 µM), 0.186; in the assay with Irinotecan + Decitabine (first compound 0.6325 µM) it was 0.589; in the assay with Irinotecan + Decitabine (first compound 2 µM), 0.461. Moreover, the relative viability in the assay with Irinotecan + Decitabine (first compound 6.325 µM) came to 0.347; with Irinotecan + Decitabine (first compound 20 µM), 0.2; with MK-8033 + Pictilisib (first compound 0.02 µM), 0.746; in the assay with MK-8033 + Pictilisib (first compound 0.06325 µM), 0.511; in the assay with MK-8033 + Pictilisib (first compound 0.2 µM), 0.804; in the assay with MK-8033 + Pictilisib (first compound 0.6325 µM) it was 0.932. Moreover, the relative viability in the assay with MK-8033 + Pictilisib (first compound 2 µM) turned out to be 0.699; with RU-SKI 43 + Pictilisib (first compound 0.1 µM) it was 0.958; with RU-SKI 43 + Pictilisib (first compound 0.3162 µM) it was 1.11; with RU-SKI 43 + Pictilisib (first compound 1 µM), 0.876; in the assay with RU-SKI 43 + Pictilisib (first compound 3.162 µM), 0.789; with RU-SKI 43 + Pictilisib (first compound 10 µM), 0.695.
